Positions count from the first letter of the chain named. Non-standard residues stand in square brackets, D forms with d. Residues, ends and D or L forms follow the SMILES beside them. Nle = CCCC[C@H](N)C(=O)O; βAla = NCCC(=O)O
Legend:
Assay type in all cases: cell-based
[1] = target: T1, Rat BRS-3/VD (RB3-VD) (Rattus norvegicus, UniProt Q8K418, A302V/E303D); experiment: Calcium mobilization assay (FLIPR), substitution mutant
T1 construct: expressed in transfected cells; host or cells: 293EBNA cells, pE3 expression vector
T1 sequence (Q8K418 1-399 A302V/E303D): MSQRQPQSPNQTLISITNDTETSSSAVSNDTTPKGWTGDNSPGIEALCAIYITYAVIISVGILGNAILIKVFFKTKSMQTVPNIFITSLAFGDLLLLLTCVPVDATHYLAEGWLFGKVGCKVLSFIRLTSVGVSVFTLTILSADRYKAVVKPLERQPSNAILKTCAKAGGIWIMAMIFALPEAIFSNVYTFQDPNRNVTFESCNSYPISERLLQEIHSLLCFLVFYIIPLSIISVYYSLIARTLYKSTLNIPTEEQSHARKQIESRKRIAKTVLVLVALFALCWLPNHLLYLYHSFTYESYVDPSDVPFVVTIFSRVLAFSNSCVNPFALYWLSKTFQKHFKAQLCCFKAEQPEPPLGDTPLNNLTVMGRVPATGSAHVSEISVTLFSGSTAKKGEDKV
Source text: (§1) Chimeric rat/human BRS-3 genes and substitution mutant rat BRS-3 genes were constructed by using PCR mutagenesis techniques (Fong, T. in Structure-function analysis of G protein coupled receptors, J, Wess, ed, Wiley-Liss, pp. 1-20, (1999)). All the mutant and wild type BRS-3 genes were cloned into pE3 expression vector which contains CMV early promoter, hygromycin-resistance gene and OriP segment from Epstein-Bar virus.
(§2) The functional activity of rat BRS-3 was also studied by measuring the agonist-induced calcium mobilization response using a Fluorescence Imaging Plate Reader (Molecular Devices, Sunnyvale, Calif.). Transfected 293EBNA cells were plated onto poly-D-lysine coated 96-well plates with black wall and clear bottom (Becton Dickinson, Franklin Lakes, N.J.). After 16-48 hr culture, the cells were loaded with 4 uM Fluo-3-AM fluorescent calcium-indicator dye (Molecular Probes, Eugene, OR) in assay buffer (Hank's balanced salts solution, 10 mM HEPES, pH7.4, 0.1% bovine serum albumin, 2.5 mM probenecid).
(§3) The changes in intracellular calcium concentration, as indicated by Fluo-3 fluorescence, were immediately measured by FLIPR. Maximal changes in fluorescence over base line were used to determine agonist response.
(§4) The EC50 values were mean±S.E. calculated from dose-response curves of 3-5 repeated experiments using FLIPR assays.
(§5) To determine which amino acids in the E3 loop of human BRS-3 conferred dYB activity upon rat BRS-3, several substitution BRS-3 mutants were made in which the amino acids in the E3 loop of rat BRS-3 were substituted with residues that match human BRS-3.

[2] = target: T2, Rat BRS-3/AMH (RB3-AMH) (Rattus norvegicus, UniProt Q8K418, D306A/P308H/V307M); experiment: as above
T2 construct: expressed in transfected cells; host or cells: 293EBNA cells, pE3 expression vector
T2 sequence (Q8K418 1-399 D306A/V307M/P308H): T1 sequence (Q8K418 1-399 A302V/E303D) with V302A, D303E, D306A, V307M, P308H
Source text: as §1, §2, §3, §4, §5

[3] = target: T3, Rat BRS-3/SQT (RB3-SQT) (Rattus norvegicus, UniProt Q8K418, E299Q/S300T/Y298S); experiment: as above
T3 construct: expressed in transfected cells; host or cells: 293EBNA cells, pE3 expression vector
T3 sequence (Q8K418 1-399 Y298S/E299Q/S300T): T1 sequence (Q8K418 1-399 A302V/E303D) with Y298S, E299Q, S300T, V302A, D303E
Source text: as §1, §2, §3, §4, §5

[4] = target: T4, rat BRS-3 (Rattus norvegicus, UniProt Q8K418); experiment: Calcium mobilization assay (FLIPR), transfected 293EBNA cells
T4 construct: utilized to PCR amplify full-length rat BRS-3 cDNA; expressed in transfected cells; host or cells: 293EBNA cells, pE3 expression vector
T4 sequence (Q8K418 1-399): T1 sequence (Q8K418 1-399 A302V/E303D) with V302A, D303E
Description: Wild type and mutant BRS-3 constructs were transfected by using lipofectamine reagents (Life Technologies, Rockville, Md.) into 293EBNA cells (Invitrogen, Carlsbad, Calif.) which support episomal replication of plasmid containing Epstein Bar virus OriP segment. Stable cell lines were obtained by selection with 250 ug/ml hygromycin. The cells were maintained as monolayers in Dulbecco's modified Eagle's medium (Life Technologies, Rockville, Md.) supplemented with 10% fetal bovine serum and incubated at 37° C. in a humidified 5% CO2 incubator.
as §2, §3, §4

| SMILES | effect of mutation on dYB receptor activity ([1]; RBB3-VD vs rat BRS-3) | improvement of dYB potency in calcium mobilization ([2]; RB3-AMH vs rat BRS-3) [fold] | improvement of dYB potency in calcium mobilization ([3]; RB3-SQT vs rat BRS-3) [fold] | difference in dYB potency between human and rodent BRS-3 [4] | lower affinity of rat BRS-3 to dYB than human BRS-3 [4] | EC50 [1] [nM] | EC50 [2] [nM] | EC50 [3] [nM] | EC50 [4] [nM] |
| --- | --- | --- | --- | --- | --- | --- | --- | --- | --- |
| CCCC[C@H](NC(=O)[C@H](Cc1ccccc1)NC(=O)[C@H](Cc1c[nH]cn1)NC(=O)CCNC(=O)[C@@H](NC(=O)[C@H](C)NC(=O)[C@H](Cc1c[nH]c2ccccc12)NC(=O)[C@H](CCC(N)=O)NC(=O)[C@H](N)Cc1ccc(O)cc1)C(C)C)C(N)=O [dYB, [D-Tyr6-betaAla11-Phe13-Nle14] bombesin (6-14)] (H-[dY]QWAV[βAla]HF[Nle]-NH2) | little effect on the receptor activity | 6 | 5 | approximately 1000 fold | approximately 1000 fold |  |  |  |  |
| CCCC[C@H](NC(=O)[C@H](Cc1ccccc1)NC(=O)[C@H](Cc1cnc[nH]1)NC(=O)CCNC(=O)[C@@H](NC(=O)[C@H](C)NC(=O)[C@H](Cc1c[nH]c2ccccc12)NC(=O)[C@H](CCC(N)=O)NC(=O)[C@H](N)Cc1ccc(O)cc1)C(C)C)C(N)=O [dYB, [D-Tyr6-betaAla11-Phe13-Nle14] bombesin (6-14)] (H-[dY]QWAV[βAla]HF[Nle]-NH2) |  |  |  |  |  | 930 ± 150 | 370 ± 70 | 390 ± 80 | 2200 ± 500 |

From US20050222402A1, “Dna encoding rat bombesin receptor subtype-3 (brs-3) and uses thereof” (priority 2001, published 2005)
